Converted amounts (≈) assume the structure as drawn.

This note sets out measurements from patent US11505521B2 (Biothea Pharma, Inc., priority 2018, dated 2022).

The nature of data set [1]: physchem. The procedure:
The tests were conducted using Sartorius balances (Model SQP) and a potentiometric titrator (Brand: Methrom, Model No. 905 Titrando). 0.17 g of the sample was weighed and transferred into a 50 mL volumetric flask with the remainder of the volume comprising deonized water. The solution was mixed. The solution was titrated with a 0.1 mol/L NaOH solution using a pH indicator to indicate the end point.

A short description of data set [2]: physchem. The conditions noted are these: n-octanol / pH 3.47 buffer. Here is the method:
(§1) The tests were conducted using Sartorius balances (Model SQP), a Thermo HPLC (UltiMate 3000 System, UV Wavelength: 205 nm), and Phenomenex Luna columns (5 μm C18 (2), 4.6×250 mm). The column temperature was 40° C. and the autosampler temperature was room temperature. The injection volume was 5 μL.
(§2) Mobile Phase A was prepared by weighing 4.0 g tetramethylammonium bisulfate (MERYER, Batch No. 77957139) and 1.1 sodium 1-heptasulfonate (Admas-beta, Batch No. P1343755), and transferring the materials to a flask. 2 mL of 0.1 mol/L EDTA solution (Brand: Sinopharm Chemical Reagent Co., Ltd., Batch No. 20150410) was added to the flask and the volume was adjusted to 950 mL using water. The solution was mixed and adjusted to a pH of 3.5 with 0.1N sodium hydroxide solution (Brand: Enox, Batch No. 20161201). Mobile Phase B was prepared using ethanol. The isocratic elution was used in a proportion of A/B of 85/15. The run time was 8 minutes.
A hydrogen disodium phosphate solution was prepared by weighing 7.1 g of hydrogen disodium phosphate (Brand: Sinopharm Chemical Reagent Co., Ltd., Batch No. 20150910). A citric acid solution was prepared by weighing 5.25 g of hydrated citric acid (Brand: General-Reagent, Batch No. 5949-29-1) and dissolving it in 1000 mL of water. A pH 3.47 buffer solution was prepared by adjusting the pH of the hydrogen disodium phosphate solution to 3.47 with the citric acid solution. An n-octanol buffer solution was prepared by mixing 100 mL of n-octanol (Brand: Chinasun Specialty Products Co., Ltd., Batch No. 20160601) and 100 mL of the pH 3.47 buffer solution, vibrated for 24 hours, which sat for an hour to separate the n-octanol phase and the pH 3.47 buffer phase.
10 mg of the sample was dissolved in 10 mL of the saturated n-octanol solution and mixed completely. 10 mL of the saturated pH 3.47 buffer solution was added and vortexed at 3000 r/min for 1 hour. 1 mL of solution was pipetted from the n-octanol and pH 3.47 phase after an hour. A standard solution was prepared containing 1 mg/mL of the standard in diluent. An LOQ solution was prepared from about 0.1% of the standard solution. An n-octanol phase solution was diluted with 1 mL of methanol to test. The pH 3.47 phase solution was injected directly. The partition coefficient was calculated using the following formula:
[formula] wherein Co is the equilibrium concentration of solute in oil phase, and Cw is the equilibrium concentration of solute in water phase.

For data set [3] the following is noted: sublingual tablet of Example 3, 10 mg epinephrine base, receptor pH 7.4, 37° C. Here is the method:
The in-vitro permeability of the pharmaceutical compositions of Example 3 were tested. The tests were conducted using drug transdermal diffusion test instruments (Brand Huanghai, Model No. RJY-6B), Sartorius balances (Model SQP), an INESA pH meter (Model PHS-3E), a Thermo HPLC (UltiMate 3000 System, UV Wavelength: 205 nm), and Phenomenex Luna columns (5 μm C18 (2), 4.6×250 mm). The column temperature was 40° C. and the autosampler temperature was room temperature. The injection volume was 5 μL.
as §2, with “using methanol.” for “using ethanol.”, “was 10” for “was 8”
The in vitro diffusion of epinephrine salts were evaluated using Franz cells with an OD of 20 mm and reservoir volume of 7 mL. Dialysis membranes (Spectra/Por® dialysis membranes with 1,000 Da MWCO) were used to simulate sublingual mucous membrane in the vitro permeability tests. The assay content of the active components was detected in receiving pools. A receptor chamber with a magnetic stirrer was filled with phosphate buffer solution (pH 7.4) as the diffusion medium. The water bath was set at 37° C., and water was circulated in the Franz cells.
Each tablet was placed at the center of the donor chamber on the membrane at T0, and 2 mL of the artificial saliva (Brand: Biomart, Brand No. GL0305) was added to facilitate tablet disintegration and dissolution. Aliquots of 1 mL were withdrawn from the receptor chamber at 10, 30, 60, 90, and 120 min. The volumes withdrawn were replenished with fresh medium. Samples were transferred to HPLC vials for HPLC analysis.

Data set [4] in a line: physchem. The conditions noted are these: water; for Solubility: 25±2° C. Here is the method: as §1, §2
A standard solution was used comprising 10 mg of the standard dissolved in 10 mL of water. The test solution solutions were prepared and water was added at 25±2° C. Every 5 minutes, the solution was sonicated for 30 seconds. The dissolution was observed within 30 minutes to make sure the solution was saturated. The solution was filtered through a 0.45 μm membrane and the solution was diluted to test.

Turning to `CNC[C@H](O)c1ccc(O)c(O)c1` [epinephrine bitartrate], the pKa (as a rule, the negative logarithm of the acid dissociation constant) in data set [1] (deionized water) turned out to be 4.2. Also, the LogP (in general, the decadic logarithm of the partition coefficient of the neutral form, usually between octanol and water) in data set [2] (pH 3.47) was -2.95. Also, in data set [3], the “Diffusion content (%) 120 min” value was determined as 67.8%. Besides, in data set [4] (25 °C, thermodynamic from solid), the solubility (usually the dissolved amount per volume that the medium holds) at 30 min is 827 mg/mL.
Regarding `CNC[C@H](O)c1ccc(O)c(O)c1` [epinephrine malonate], the pKa in data set [1] (titrated with 0.1 mol/L NaOH) was 5.47. This compound also gave a LogP in data set [2] of −3.00. Besides, in data set [3], the “Diffusion content (%) 120 min” value is given as 57.5%. In addition, the Solubility (commonly the concentration that dissolves in the medium under given conditions) in data set [4] stood at 1142.7 mg/mL (≈ 6240 mM).
The corresponding values for epinephrine maleate are 6.12, −3.01, 63.5% and 82.7 mg/mL.
